pIC50: −log10 of the molar value.
Key:
CA16 = test: organism not typed; type: cell-based; settings: RD, 96 h
CA6 = test: organism not typed; type: cell-based; settings: RD, 96 h
CA10 = test: organism not typed; type: cell-based; settings: RD, 96 h
mTOR kinase = mTOR kinase (Homo sapiens, UniProt P42345); test: Inhibitory activity on mTOR kinase (TR-FRET, GFP-4E-BP1 substrate); type: biochemical; settings: fit parameter of concentration-mTOR kinase inhibition curve
EV71 virus [1] = tested on: EV71 virus
EV-D68 [2] = tested on: EV-D68
CB3 virus [3] = tested on: CB3 virus
[4] = tested on: Poliovirus I/II/III (mixed vaccine strains of three subtypes)
mTORC1 = mTORC1 (Homo sapiens, UniProt P42345); settings: RD cells, 20 μM, 2 hours, insulin medium, Western blot
mTORC2 = mTORC2 (Homo sapiens, UniProt P42345); settings: RD cells, 20 μM, 2 hours, insulin medium, Western blot
CB3 virus [5] = test: organism not typed; settings: Vero, 120 h
EV71 virus [6] = test: microbe, parasite or virus in culture; settings: Enterovirus A, EV71, RD, 96 h
EV-D68 [7] = test: microbe, parasite or virus in culture; settings: Enterovirus D, EVD68, RD, 96 h
[8] = tested on: Poliovirus I/II/III (mixed vaccine strains of three subtypes); test: microbe, parasite or virus in culture; settings: Enterovirus C, RD, 96 h

Work on Nc1ccc(-c2ccc3ncc4ccc(=O)n(-c5cccc(C(F)(F)F)c5)c4c3c2)cn1 [compound of Formula I, 9-(6-amino-pyridin-3-yl)-1-(3-trifluoromethyl-phenyl)-1H-benzo[h][1,6]naphthyridin-one] yielded a pIC50 (CA16) of less than 5.00, a pIC50 (CA6) of less than 5.00 and a pIC50 (CA10) of less than 5.00. For the same molecule, the Bottom (mTOR kinase) was 3.74, the HillSlope (mTOR kinase) was 1.14 and the Top (mTOR kinase) was 103.60. For the same molecule, the “inhibitory effect on enterovirus (in words)” value (“inhibitory effect” for short) (EV71 virus [1]) was “significant inhibitory effect”, the “inhibitory effect” value (EV-D68 [2]) was “significant inhibitory effect” and the “inhibitory effect” value (CB3 virus [3]) was “significant inhibitory effect”. The “inhibitory effect” value [4] was “significant inhibitory effect”, the “phosphorylation expression levels of p70 (Thr389 of p70S6K1)” value (mTORC1) was “significantly reduced” and the “phosphorylation level of Akt (Ser473)” value (mTORC2) was “significantly down-regulate”. It also gave a pIC50 (CB3 virus [5]) of 8.30, a pIC50 (EV71 virus [6]) of 8.00 and a pIC50 (EV-D68 [7]) of 8.30. It also gave a pIC50 [8] of 7.28.
